Test results: publication PMC11959965 (Acta Pharmaceutica Sinica. B, 2024)
“Also recorded” adds a separate entry of the source.

How the values were obtained:
[1] = biological target: T1, TSPO (Rattus norvegicus, UniProt P16257); assay: In vitro autoradiography on rat brain slices; type: binding; conditions: sham rat brain slices; PK11195 14.17 μmol/L, [19F]F-TFQC 12.91 μmol/L; 14.5 nmol/L [18F]F-TFQC; P < 0.001
[2] = biological target: TSPO; conditions: read-out: human U87MG Ki; cited from earlier work
[3] = biological target: T1, TSPO; assay: Micro PET/CT imaging in KA-induced epileptic rats; type: in vivo, SD rats; conditions: 2 mg/kg i.v. 10 min prior to [18F]F-TFQC, P < 0.05

T1 sequence (P16257 whole entry): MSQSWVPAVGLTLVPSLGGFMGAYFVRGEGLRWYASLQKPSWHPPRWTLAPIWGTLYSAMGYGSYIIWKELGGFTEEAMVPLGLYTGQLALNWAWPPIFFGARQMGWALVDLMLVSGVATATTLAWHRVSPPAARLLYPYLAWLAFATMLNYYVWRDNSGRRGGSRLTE

In the case of CCC(C)N(C)C(=O)c1cc2ccccc2c(-c2ccccc2Cl)n1 (stereo not shown) [PK11195, reference compound], the “blocking of [18F]F-TFQC autoradiography signals” value [1] is reported as “disappeared; also recorded: blocked”.
In the case of CC[C@@H](C)N(C)C(=O)c1nc(-c2cccc(C(F)(F)F)c2)c2ccccc2n1 [[^19F]F-TFQC, N-((2R)-but-2-yl)-N-methyl-4-(3-(trifluoromethyl)phenyl)quinazoline-2-carboxamide], the Ki [2] is given as 1.19 nM, the “blocking of [18F]F-TFQC autoradiography signals” value [1] is given as “disappeared; also recorded: blocked” and the “blocking of [18F]F-TFQC radioactivity in the right hippocampus” value [3] is given as “blocked”.
